According to patent publication US20160325911A1, “ANTIMICROBIAL COMPOSITIONS FOR FOOD PACKAGING CONSISTING OF SALICYLALDEHYDE AND CARVACROL, THYMOL OR THEIR MIXTURE” (INSTITUTO TECNOLÓGICO DEL EMBALAJE, TRANSPORTE Y LOGÍSTICA, priority 2014, published 2016):
Values belong to the molecule of their own block, whether it stands above or below them.

Assays:
Type in all cases: cell-based
Conditions in all cases: alone or as component of the blend, 20 h at 36° C. in TSB
[1] = tested on: Staphylococcus aureus (strain ATCC6538); assay: Broth dilution MIC and synergy index against Staphylococcus aureus
Method: (§1) Solutions containing carvacrol, thymol and salicylaldehyde were assessed for antimicrobial activity against three different reference microorganisms: • Gram negative bacteria—Escherichia coli (strain ATCC 8739) • Gram negative bacteria—Pseudomonas aeruginosa (strain ATCC 27853) • Gram positive bacteria—Staphylococcus aureus (strain ATCC6538)
(§2) The microorganisms were collected from the “Colección Española de Cultivos Tipo” (CECT), University of Valencia. They were collected in the form of a lyophilized inoculum and were refreshed by regular seeding in solid culture media. After the grown, the stock culture was kept under refrigeration. Prior to the analysis, the microorganisms were recultured 3-4 times by diluting colonies in tryptic soy broth (TSB) and incubating overnight at 36° C.
(§3) The day prior to the assay, the colonies are touched with a loop and transferred to tryptic soy broth (TBS) (100 mL). The broth is incubated at 36° C. overnight until the growth reaches a turbidity equal or similar to 10^9 colony-forming units per millilitre (CFU/mL). The culture is adjusted to give a turbidity equivalent to 0.18 absorbance units in order to confirm the inoculum is in the exponential growth phase (around 10^5-10^6 CFU/mL). The measurement is carried out by using a UV-VIS spectrometer, operating at 550 nm and a 1-cm path cell. […]
(§4) The antimicrobial efficacy of Carvacrol, Thymol and Salycylaldehyde and their blends, was determined as Minimum Inhibitory Concentration (MIC). MIC is recorded as the lowest product concentration that inhibits growth. […]
(§5) Where: • CM is the MIC of the substance n when used in a blend, that is, in combination with the rest of antimicrobial compounds analysed. • CS is the MIC of the substance when used alone.
(§6) SI below 1 indicates synergy effect and p-value has been calculated as the probability of obtaining the observed sample results (or a more extreme result) when the null hypothesis is actually true. […]

[2] = tested on: Escherichia coli (strain ATCC 8739); assay: Broth dilution MIC and synergy index against Escherichia coli
Method: as §1, §2, §3, §4, §5, §6

[3] = tested on: Pseudomonas aeruginosa (strain ATCC 27853); assay: Broth dilution MIC and synergy index against Pseudomonas aeruginosa
Method: as §1, §2, §3, §4, §5, §6

[4] = amount of salicylaldehyde at the MIC

SMILES: Cc1ccc(C(C)C)cc1O [Carvacrol, carvacrol]
- MIC Staphylococcus aureus, Carvacrol ([1]; amount of carvacrol at the MIC): 2.1 mg
- MIC Escherichia coli, Carvacrol ([2]; amount of carvacrol at the MIC): 3 mg
- MIC Pseudomonas aeruginosa, Carvacrol ([3]; amount of carvacrol at the MIC): 7.5 mg

- MIC Staphylococcus aureus, Salicylaldehyde [1, 4]: 4.75 mg
- MIC Escherichia coli, Salicylaldehyde [2, 4]: 4.75 mg
- MIC Pseudomonas aeruginosa, Salicylaldehyde [3, 4]: 2.25 mg
SMILES: O=Cc1ccccc1O [Salicylaldehyde, salicylaldehyde]

- MIC Staphylococcus aureus, Thymol ([1]; amount of thymol at the MIC): 1.1 mg
- MIC Escherichia coli, Thymol ([2]; amount of thymol at the MIC): 2 mg
- MIC Pseudomonas aeruginosa, Thymol ([3]; amount of thymol at the MIC): 4.5 mg
SMILES: Cc1ccc(C(C)C)c(O)c1 [Thymol, thymol]
